Measurements as given in patent US12012404B2, “Pyrimidoheterocyclic compounds and application thereof” (D3 BIO (WUXI) CO., LTD., priority 2020, dated 2024).
Read-outs that look alike come from different tables or passages of the source. Each block holds one compound with its values, some of them ahead of it.

How the values were obtained:
[1] = Metabolic stability in hepatocytes, CD-1 mice; assay type: in vitro ADME; details: CD-1 mice hepatocytes
Description: (§1) Purpose of the assay: Metabolic stabilities of assay compounds in hepatocytes of CD-1 mice, SD rats, beagle dogs, cynomolgus monkeys, and human were assayed, respectively.
(§2) Procedure of the assay: Several 96-well sample precipitation plates were prepared and named T0, T15, T30, T60, T90, T120, TO-MC, T120-MC and blank substrates, respectively. The recovery medium and incubation medium were taken out in advance and placed in a 37° C. water bath for pre-heating. Cryopreserved hepatocytes were removed from the liquid nitrogen tank and immediately immersed in a 37° C. water bath (approximately 90 seconds). After the cryopreserved hepatocytes had thawed and loosened, they were poured into a centrifuge tube containing 40 mL of recovery medium, and the tube was gently inverted to allow the cells to be resuspended in the recovery medium. The cells were centrifuged at 100×g at room temperature for 5 min, and the supernatant was removed. The hepatocytes were resuspended in an appropriate volume of incubation medium, and the cell viability was calculated by Trypan Blue staining method. 198 μL of hepatocyte suspension (0.51×10^6 cells/mL) was added to the preheated incubation plate. For the culture medium control group, 198 μL of hepatocyte-free incubation medium was added to T0-MC and T120-MC incubation plate. All incubation plates were pre-incubated in a 37° C. incubator for 10 minutes. Then 2 μL of working solutions of the assay sample and the control compound were added, respectively, and the mixture was mixed well. The incubation plate was immediately put into the shaker in the incubator, and the reaction was initiated while starting the timer. For each time point of each compound, 2 duplicate samples were prepared. The incubation conditions were 37° C., saturated humidity, and 5% CO2. In the assay system, the final concentration of the assay sample was 1 μM, the final concentration of the control sample was 3 μM, the final concentration of hepatocytes was 0.5×10^6 cells/mL, and the final concentration of the total organic solvent was 0.96%, of which the final concentration of DMSO was 0.1%. At the end of the incubation for the corresponding time point, the incubation plate was taken out, and 25 μL of a mixture of compound and control compound with cells was added to the sample plate containing 125 μL of stop solution (200 ng/mL tolbutamide and labetalol in acetonitrile). For the Blank sample plate, 25 μL of hepatocyte-free incubation medium was added directly. After sealing, all sample plates were shaken on a shaker at 600 rpm for 10 minutes, and then centrifuged at 3220×g for 20 minutes. Supernatants of the assay sample and the control sample were diluted with ultrapure water at a ratio of 1:3. All samples were mixed well and analyzed by LC/MS/MS.

[2] = Metabolic stability in hepatocytes, cynomolgus monkeys; assay type: in vitro ADME
Description: as §1, §2

[3] = Metabolic stability in hepatocytes, human; assay type: in vitro ADME
Description: as §1, §2

[4] = test system: plasma protein of cynomolgus monkeys; experiment: Protein binding rate by equilibrium dialysis, cynomolgus monkeys plasma; assay type: in vitro ADME; details: 2 μM, dialysis 4 hours
Description: (§3) Purpose of the assay: Protein binding rate of the assay compounds in plasma of CD-1 mice, SD rats, beagle dogs, cynomolgus monkeys and human was determined by equilibrium dialysis.
(§4) Procedure of the assay: Plasma samples with a compound concentration of 2 μM were prepared using plasma of the above five species, placed in a 96-well equilibrium dialysis device, and dialyzed with phosphate buffer solution at 37±1° C. for 4 hours. Warfarin was used as the control compound in this assay. The concentrations of the assay compounds in plasma and dialysis buffer were determined by LC-MS/MS method.

[5] = test system: plasma protein of beagle dogs; experiment: Protein binding rate by equilibrium dialysis, beagle dogs plasma; assay type: in vitro ADME; details: 2 μM, dialysis 4 hours
Description: as §3, §4

[6] = Pharmacokinetics by oral administration and intravenous injection in CD mice; assay type: in vivo; details: for AUCu: AUC0-last × PPB(Unbound %); for Peak concentration, Cmax, u: Cmax × PPB(Unbound %); for Cmax: read-out: Peak concentration, Cmax; for Vd: CD, iv, 2.39 mg/kg
Description: 2) Assay on the Pharmacokinetics of the Assay Compounds by Oral Administration and Intravenous Injection in CD Mice
The assay compound was mixed with 5% dimethyl sulfoxide/95% (10% hydroxypropyl-β-cyclodextrin) solution. The mixture was vortexed and sonicated to prepare a 1 mg/mL clear solution, which was filtered through a microporous membrane for later use. Male CD mice aged 7 to 10 weeks were selected, and administered candidate compound solutions intravenously or orally. Whole blood was collected for a certain period of time, and prepared to obtain plasma. Drug concentration was analyzed by LC-MS/MS method, and pharmacokinetic parameters were calculated by Phoenix WinNonlin software (Pharsight, USA).

[7] = intravenous injection, 2.39 mg/kg (17), 2.0 mg/kg (8B)
[8] = oral, 14.7 mg/kg (17), 10.3 mg/kg (8B)
[9] = male, mouse, plasma, oral, 14.7 mg/kg (17), 10.3 mg/kg (8B)

CLint(hep) ([1]; 1 μM): 76.3 μL/min/10^6
CLint(liver) ([1]; 1 μM): 906.0 mL/min/kg
T1/2 ([1]; 1 μM): 0.303 h
CLint(hep) ([2]; 1 μM): 10.2 μL/min/10^6
CLint(liver) ([2]; 1 μM): 36.7 mL/min/kg
T1/2 ([2]; 1 μM): 2.268 h
CLint(hep) ([3]; 1 μM): 6.9 μL/min/10^6
CLint(liver) ([3]; 1 μM): 19.3 mL/min/kg
T1/2 ([3]; 1 μM): 3.325 h
Protein unbound rate [4]: 23.9
Protein unbound rate [5]: 6.0
AUC0-last [6, 7]: 1.297 µM·h
Apparent volume of distribution, Vdss [6, 7]: 3.9 L/kg
Clearance rate, CL [6, 7]: 40.6 mL/min/kg
Half-life period, T1/2 [6, 7]: 1.7 h
AUCu [6, 7]: 0.1556 µM·h
Apparent volume of distribution, Vdss, u ([6]; intravenous injection, 2.39 mg/kg (17), 2.0 mg/kg (8B), Vdss/PPB(Unbound %)): 32.3 L/kg
AUC0-last [6, 8]: 1.422 µM·h
Bioavailability F [6, 8]: 21.9%
Time-to-peak, Tmax [6, 8]: 1.0 h
AUCu [6, 8]: 0.1706 µM·h
Peak concentration, Cmax, u [6, 8]: 51.7 nM
Cmax [6, 8]: 431 nM
Compound: C=C(F)C(=O)N1CCN(c2nc(OCC3CCCN3C)nc3c2COC(c2c(F)c(N)cc(C)c2C(F)(F)F)C3)CC1CC#N.Cl (single isomer, unassigned) [Compound 8B hydrochloride]

Compound: C=C(F)C(=O)N1CCN(c2nc(OC[C@@]34CCCN3C[C@H](F)C4)nc3c2COC(c2c(F)c(N)cc(C)c2C(F)(F)F)C3)C[C@@H]1CC#N (stereo partly shown) [Compound 17]
CLint(hep) ([1]; 1 μM): 146.3 μL/min/10^6
half-life at 1 μM ([1]; mouse, cryopreserved hepatocytes): 9.5 min
CLint scaled at 1 μM ([1]; mouse, cryopreserved hepatocytes, read-out: CLint(liver)): 1740 mL/min/kg
CLint(hep) ([2]; 1 μM): 51.3 μL/min/10^6
half-life at 1 μM ([2]; cynomolgus monkey, cryopreserved hepatocytes): 0.45 h
CLint scaled at 1 μM ([2]; cynomolgus monkey, cryopreserved hepatocytes, read-out: CLint(liver)): 185 mL/min/kg
CLint(hep) ([3]; 1 μM): 13.9 μL/min/10^6
half-life at 1 μM ([3]; cryopreserved hepatocytes): 1.66 h
CLint scaled at 1 μM ([3]; cryopreserved hepatocytes, read-out: CLint(liver)): 38.7 mL/min/kg
Protein unbound rate [4]: 7.8
Protein unbound rate [5]: 3.3
AUCu [6, 7]: 0.0202 µM·h
Vd ([6]; male, mouse, plasma, intravenous injection, 2.39 mg/kg (17), 2.0 mg/kg (8B), Vdss/PPB(Unbound %), read-out: Apparent volume of distribution, Vdss, u): 169 L/kg
Vd ([6]; male, mouse, plasma, intravenous injection, 2.39 mg/kg (17), 2.0 mg/kg (8B), read-out: Apparent volume of distribution, Vdss): 2.6 L/kg
AUC(0-t) ([6]; male, mouse, plasma, intravenous injection, 2.39 mg/kg (17), 2.0 mg/kg (8B)): 1.31 µM·h
clearance ([6]; male, mouse, plasma, intravenous injection, 2.39 mg/kg (17), 2.0 mg/kg (8B), read-out: Clearance rate, CL): 37.3 mL/min/kg
half-life ([6]; male, mouse, plasma, intravenous injection, 2.39 mg/kg (17), 2.0 mg/kg (8B), read-out: Half-life period, T1/2 (converted)): 1 h
AUC(0-t) [6, 9]: 2.4 µM·h
bioavailability ([6]; male, mouse, plasma, oral, 14.7 mg/kg (17), 10.3 mg/kg (8B), read-out: Bioavailability F): 24.4%
Cmax [6, 9]: 1460 nM
Tmax ([6]; male, mouse, plasma, oral, 14.7 mg/kg (17), 10.3 mg/kg (8B), read-out: Time-to-peak, Tmax): 0.25 h
AUCu [6, 8]: 0.037 µM·h
Peak concentration, Cmax, u [6, 8]: 22.5 nM
